In US12653830B2, “Substituted imidazoquinoxaline compounds and uses thereof” (Impact Therapeutics (Shanghai), Inc, priority 2019, dated 2026):
pIC50: −log10 of the molar value. Where two headings read alike, the source gives them in different places.

How the values were obtained:
[1] = test system: human breast cancer cell MDA-MB-468; assay: MTT proliferation assay, MDA-MB-468; assay type: cell-based; conditions: Homo sapiens, MDA-MB-468, 168 h, 7 days, single agent, read-out: IC50, inhibition of proliferation of MDA-MB-468
Procedure, shortened: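 Cells seeded overnight, then treated 7 days at 37 °C, 5% CO2 in RPMI 1640 + 5% FBS with 1% final DMSO, medium changed on day 4. MTT (0.5 mg/mL) for 4 h, DMSO-solubilised, absorbance at 552 and 693 nm; viability relative to DMSO after background subtraction, IC50 from log-concentration curves.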

[2] = molecular target: T1, ATM kinase (Homo sapiens, UniProt Q13315); assay: In vitro ATM kinase assay (Cisbio HTRF, p53 substrate); assay type: biochemical; conditions: 30 μM ATP; for inhibition at 0.001 µM: Conc. 1 nM; for inhibition at 0.001 µM / inhibition at 0.0001 µM / inhibition at 0.01 µM: read-out: Inh % (inhibitory effect on ATM kinase activity); for inhibition at 0.0001 µM: Conc. 0.1 nM; for inhibition at 0.01 µM: Conc. 10 nM
T1 construct: purchased Eurofins 14-933
T1 sequence (Q13315 whole entry): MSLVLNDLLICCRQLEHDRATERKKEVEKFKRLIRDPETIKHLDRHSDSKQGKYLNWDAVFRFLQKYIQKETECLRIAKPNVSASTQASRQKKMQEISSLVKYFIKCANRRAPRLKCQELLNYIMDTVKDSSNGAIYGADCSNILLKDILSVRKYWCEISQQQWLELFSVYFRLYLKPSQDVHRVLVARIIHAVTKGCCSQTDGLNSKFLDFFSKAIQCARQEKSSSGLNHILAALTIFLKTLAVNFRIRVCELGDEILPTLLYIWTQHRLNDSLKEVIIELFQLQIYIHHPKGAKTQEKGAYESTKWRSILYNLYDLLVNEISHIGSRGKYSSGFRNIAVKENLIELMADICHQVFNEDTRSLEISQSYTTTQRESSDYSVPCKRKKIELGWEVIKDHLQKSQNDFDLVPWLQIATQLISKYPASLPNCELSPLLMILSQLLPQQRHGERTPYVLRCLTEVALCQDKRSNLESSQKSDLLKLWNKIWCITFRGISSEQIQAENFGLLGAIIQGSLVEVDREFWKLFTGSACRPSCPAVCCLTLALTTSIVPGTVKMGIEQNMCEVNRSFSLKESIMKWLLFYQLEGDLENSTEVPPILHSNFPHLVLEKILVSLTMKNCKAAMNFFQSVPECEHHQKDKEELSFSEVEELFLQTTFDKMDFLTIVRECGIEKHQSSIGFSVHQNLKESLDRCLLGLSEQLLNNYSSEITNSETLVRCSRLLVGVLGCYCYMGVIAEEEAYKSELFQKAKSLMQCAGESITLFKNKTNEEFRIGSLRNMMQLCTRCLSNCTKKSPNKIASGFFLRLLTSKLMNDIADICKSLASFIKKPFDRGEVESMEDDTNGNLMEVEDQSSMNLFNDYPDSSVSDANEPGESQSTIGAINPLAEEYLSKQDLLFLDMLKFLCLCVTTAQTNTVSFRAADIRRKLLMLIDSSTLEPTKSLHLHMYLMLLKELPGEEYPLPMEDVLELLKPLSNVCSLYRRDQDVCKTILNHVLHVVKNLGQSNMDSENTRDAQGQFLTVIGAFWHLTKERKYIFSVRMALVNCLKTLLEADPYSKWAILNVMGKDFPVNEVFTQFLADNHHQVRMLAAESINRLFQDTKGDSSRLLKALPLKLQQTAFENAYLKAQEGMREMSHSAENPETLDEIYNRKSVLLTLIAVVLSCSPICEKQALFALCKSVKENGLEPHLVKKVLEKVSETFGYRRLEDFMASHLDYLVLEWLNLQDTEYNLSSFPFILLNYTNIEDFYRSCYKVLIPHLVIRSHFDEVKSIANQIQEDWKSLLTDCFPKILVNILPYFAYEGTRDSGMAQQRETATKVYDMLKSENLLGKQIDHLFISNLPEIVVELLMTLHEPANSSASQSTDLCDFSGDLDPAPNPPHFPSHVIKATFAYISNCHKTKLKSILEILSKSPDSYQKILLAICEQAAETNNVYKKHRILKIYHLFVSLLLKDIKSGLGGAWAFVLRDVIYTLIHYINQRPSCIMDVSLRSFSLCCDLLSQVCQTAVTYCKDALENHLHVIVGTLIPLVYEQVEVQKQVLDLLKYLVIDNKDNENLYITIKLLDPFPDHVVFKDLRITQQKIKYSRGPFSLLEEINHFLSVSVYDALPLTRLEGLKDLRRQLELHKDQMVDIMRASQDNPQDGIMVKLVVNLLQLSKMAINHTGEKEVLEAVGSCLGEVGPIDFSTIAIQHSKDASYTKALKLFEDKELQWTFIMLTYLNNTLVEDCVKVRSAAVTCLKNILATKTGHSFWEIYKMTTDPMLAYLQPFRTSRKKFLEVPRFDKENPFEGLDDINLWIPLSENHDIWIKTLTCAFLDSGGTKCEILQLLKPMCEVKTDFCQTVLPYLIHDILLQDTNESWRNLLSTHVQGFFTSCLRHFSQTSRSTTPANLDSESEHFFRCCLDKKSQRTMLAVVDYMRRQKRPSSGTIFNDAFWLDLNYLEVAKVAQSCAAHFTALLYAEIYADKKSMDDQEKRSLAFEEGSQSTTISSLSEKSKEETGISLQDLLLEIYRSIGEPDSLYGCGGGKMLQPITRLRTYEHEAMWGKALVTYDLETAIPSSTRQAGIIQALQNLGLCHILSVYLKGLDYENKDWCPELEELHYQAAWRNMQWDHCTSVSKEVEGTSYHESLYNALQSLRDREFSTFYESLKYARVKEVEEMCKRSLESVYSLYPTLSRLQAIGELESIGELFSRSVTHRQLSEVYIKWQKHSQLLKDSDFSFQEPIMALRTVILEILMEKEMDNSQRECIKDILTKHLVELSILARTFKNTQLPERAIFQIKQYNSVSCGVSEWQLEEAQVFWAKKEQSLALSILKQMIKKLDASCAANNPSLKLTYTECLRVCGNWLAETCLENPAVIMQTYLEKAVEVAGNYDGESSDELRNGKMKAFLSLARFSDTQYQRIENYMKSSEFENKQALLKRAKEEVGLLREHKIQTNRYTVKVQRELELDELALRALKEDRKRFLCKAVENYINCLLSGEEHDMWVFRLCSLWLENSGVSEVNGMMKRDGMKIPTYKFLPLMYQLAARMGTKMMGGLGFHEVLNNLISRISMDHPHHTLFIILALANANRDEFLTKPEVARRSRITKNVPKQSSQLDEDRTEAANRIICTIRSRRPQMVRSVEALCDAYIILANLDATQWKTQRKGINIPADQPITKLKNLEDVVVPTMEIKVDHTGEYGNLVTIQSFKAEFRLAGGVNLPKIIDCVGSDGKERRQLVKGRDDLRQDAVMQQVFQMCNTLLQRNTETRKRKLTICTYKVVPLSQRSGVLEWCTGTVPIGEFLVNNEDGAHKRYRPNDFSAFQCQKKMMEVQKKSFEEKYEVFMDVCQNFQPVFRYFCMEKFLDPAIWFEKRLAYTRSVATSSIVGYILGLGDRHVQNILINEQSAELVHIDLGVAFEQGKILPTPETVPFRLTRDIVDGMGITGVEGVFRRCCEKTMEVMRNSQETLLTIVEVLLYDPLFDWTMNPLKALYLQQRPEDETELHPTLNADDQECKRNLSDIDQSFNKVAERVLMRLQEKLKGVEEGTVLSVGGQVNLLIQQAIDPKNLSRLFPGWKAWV

[3] = test system: human colon cancer cell SW620; assay: MTT proliferation assay in combination with CPT-11, SW620; assay type: cell-based; conditions: medium containing 205 nM CPT-11, 5 days, read-out: IC50, inhibition of proliferation of SW620 combined with CPT-11
Procedure, shortened: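 SW620 cells in RPMI 1640 + 10% FBS are seeded overnight, then given compound in fresh medium containing 205 nM CPT-11 (1% DMSO final) for 5 days at 37 °C, 5% CO2. Viability is read by MTT (0.5 mg/mL, 4 h) at 552/690 nm, normalised to background-corrected DMSO wells. IC50 is taken from viability versus log concentration.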

pIC50 [1] | inhibition at 0.001 µM [2] [%] | pIC50 [3] | pIC50 [2] | pIC50 ([3]; Homo sapiens, SW-620, 120 h) | inhibition at 0.0001 µM [2] [%] | inhibition at 0.01 µM [2] [%] | Structure (SMILES)
7.13 | 69 | 7.18 |  |  |  |  | Cc1nc(C(C)C)n2c1cnc1ccc(-c3ccc(N4CCC(N(C)C)CC4)c(Cl)c3)cc12 [Example 25, N,N-dimethyl-1-(2-chloro-4-(1-isopropyl-3-methylimidazo[1,5-a]quinoxalin-8-yl)phenyl)piperidin-4-amine]
8.35 |  |  | 9.10 | 8.15 |  |  | CNC1CCN(c2ccc(-c3ccc4ncc5c(C)nc(N6C[C@@H](C)O[C@@H](C)C6)n5c4c3)cn2)CC1 [Example 49, 1-(5-(1-((2S,6R)-2,6-dimethylmorpholino)-3-methylimidazo[1,5-a]quinoxalin-8-yl)pyridin-2-yl)-N-methylpiperidin-4-amine]
8.13 |  |  | 9.70 | 8.14 |  |  | Cc1nc(N2C[C@@H](C)O[C@@H](C)C2)n2c1cnc1ccc(-c3ccc(N4CCC(N(C)C)CC4)c(F)c3)cc12 [Example 39, 1-(4-(1-((2S,6R)-2,6-dimethylmorpholino)-3-methylimidazo[1,5-a]quinoxalin-8-yl)-2-fluorophenyl)-N,N-dimethylpiperidin-4-amine]
7.94 | 88 | 7.75 |  |  |  |  | Cc1nc(C(C)C)n2c1cnc1ccc(-c3ccc(OCCCN(C)C)nc3)cc12 [Example 19, N,N-dimethyl-3-((5-(1-isopropyl-3-methylimidazo[1,5-a]quinoxalin-8-yl)pyridin-2-yl)oxy)propan-1-amine]
7.60 | 66 | 7.75 |  |  | 12 | 100 | Cc1nc(N2C[C@@H](C)O[C@@H](C)C2)n2c1cnc1ccc(-c3ccc(OCCCN(C)C)c(C(F)(F)F)c3)cc12 [Example 37]
7.84 | 91 | 7.80 |  |  | 40 | 98 | Cc1nc(C2CCOCC2)n2c1cnc1ccc(-c3ccc(OCCCN4CCCCC4)nc3)cc12 [Example 12, 3-methyl-8-(6-(3-(piperidin-1yl)propoxy)pyridin-3yl)-1-(tetrahydro-2H-pyran-4-yl)imidazo[1,5-a]quinoxaline]
